Counter-ions that a name gives are not always drawn.
Experiments:
[1] = 120 mg dosed biweekly; cited from earlier work
[2] = interaction of fluoxetine with lactose (reducing sugar) over time; type: physicochemical; settings: room temperature and accelerated stability conditions (heat)
Text: When used in this description, the term “sugar” refers to a sugar other than a reducing sugar. A reducing sugar is a carbohydrate that reduces Fehling's (or Benedict's) or Tollens' reagent. All monosaccharides are reducing sugars as are most disaccharides with the exception of sucrose. One common sugar used frequently as a binding or filling agent is lactose. […] As discussed below, sucrose is a preferred sugar.

[3] = 60 mg once per week vs 20 mg per day; maintenance therapy after eight weeks of daily dosing; cited from earlier work

| SMILES | effectiveness for treating recurrent brief depression [1] | interaction with lactose [2] | effectiveness during maintenance therapy [3] |
| --- | --- | --- | --- |
| CNCCC(Oc1ccc(C(F)(F)F)cc1)c1ccccc1 (stereo not drawn) [fluoxetine, N-methyl-3-(p-trifluoromethylphenoxy)-3-phenylpropylamine] | ineffective | interacts with lactose both at room temperature and under accelerated stability conditions (heat) | – |
| CNCCC(Oc1ccc(C(F)(F)F)cc1)c1ccccc1 (stereo not drawn) [fluoxetine hydrochloride] | – | – | as effective as 20 mg per day |

Reference: patent USRE39030E1 (Eli Lilly and Company, priority 1997, dated 2006)
